Test results taken from patent US20260209253A1, “SILVER ION COMPLEX GEMINI QUATERNARY AMMONIUM SALT: PREPARATION METHOD AND APPLICATIONS” (ANHUI KIWI BIOTECH CO., LTD, priority 2023, published 2026).

Tested on: Escherichia coli
Assay: suspension quantitative bactericidal test (2.1.1.7.4, Disinfection Technical Specifications 2002 edition), 30 min
Type: cell-based
Settings: for antibacterial performance (in words): Table 3, 0.0015625% and 0.00078125% aqueous solutions
Protocol: (§1) Referring to 2.1.1.7.4 suspension quantitative bactericidal test (2002 edition of Disinfection Technical Specifications), neutralizer was prepared: 2.1% lecithin+2.0% glucose+0.5% sodium thiosulfate+1.5% tween-80+0.5% peptone+1.2% sodium sulfite aqueous solution. C6-S—Cl (Example 1), C8-S—Cl (Example 3) and C10-S—Cl (Example 5) were diluted into 0.0015625% and 0.00078125% aqueous solutions, and the bactericidal experiment was carried out for 30 min to Escherichia coli.
as §1, with “solution.” for “solution. C6-S—Cl (Example 1),”, “3), C8-S—Br (Example 4)” for “3)”, “C8-S—NO3” for “C10-S—Cl”, “7)” for “5)”
Referring to 2.1.1.7.4 suspension quantitative bactericidal test (2002 edition of Disinfection Technical Specifications), neutralizer was prepared: 2.1% lecithin+2.0% glucose+0.5% sodium thiosulfate+1.5% tween-80+0.5% peptone+1.2% sodium sulfite aqueous solution. C8-S—Cl (Example 3), C8-S—NO3—Ag^+ (Example 3), C8-S—CI—Cu^2+ (ratio 1), C8-S—CI—Mn^2+ (ratio 2), C8-S—CI—Fe^3+ (ratio 3), AgNO3, CuCl2, MnCl2, and FeCl3 were dissolved to 0.0015625% and 0.00078125% aqueous solution.
Referring to 2.1.1.7.4 suspension quantitative bactericidal test (2002 edition of Disinfection Technical Specifications), neutralizer was prepared: 2.1% lecithin+2.0% glucose+0.5% sodium thiosulfate+1.5% tween-80+0.5% peptone+1.2% sodium sulfite aqueous solution. C8-S—Cl (Example 3), C8-S—NO3 (Example 7) and C8-S—NO3—Ag^+ (Example 3) were configured into 0.0015625%, 0.00078125% and 0.000390625% aqueous solutions.
Referring to 2.1.1.7.4 suspension quantitative bactericidal test (2002 edition of Disinfection Technical Specifications), neutralizer was prepared: 2.1% lecithin+2.0% glucose+0.5% sodium thiosulfate+1.5% tween-80+0.5% peptone+1.2% sodium sulfite aqueous solution. The bactericidal experiment was carried out on E. coli for 30 min by preparing the silver-ion complex Gemini quaternary ammonium salt (Example 3), C10 chlorinated sulfur-free Gemini quaternary ammonium salt (Comparative example 4) and uncomplex silver-ion Gemini quaternary ammonium salt (Comparative example 4) into 0.0015625%, 0.00078125% and 0.000390625% aqueous solutions.

[1] = Table 3, 0.00078125% aqueous solution, Escherichia coli
[2] = Table 3, 0.0015625% aqueous solution, Escherichia coli
[3] = Table 1, 0.00078125% aqueous solution, Escherichia coli
[4] = Table 1, 0.0015625% aqueous solution, Escherichia coli
[5] = Table 2, 0.00078125% aqueous solution, Escherichia coli
[6] = Table 2, 0.0015625% aqueous solution, Escherichia coli
[7] = Table 5, 0.000390625% aqueous solution, E. coli
[8] = Table 5, 0.00078125% aqueous solution, E. coli
[9] = Table 5, 0.0015625% aqueous solution, E. coli
[10] = Table 4, 0.000390625% aqueous solution, Escherichia coli
[11] = Table 4, 0.00078125% aqueous solution, Escherichia coli
[12] = Table 4, 0.0015625% aqueous solution, Escherichia coli

Structure (SMILES) | Treated (cfu/mL) [1] | sterilizing rate [1] | antibacterial performance (in words) (Escherichia coli) | Treated (cfu/mL) [2] | sterilizing rate [2] | Treated (cfu/mL) [3] | sterilizing rate [3] | Treated (cfu/mL) [4] | sterilizing rate [4] | Treated (cfu/mL) [5] | sterilizing rate [5] | Treated (cfu/mL) [6] | sterilizing rate [6] | also measured
O=[N+]([O-])[O-].[Ag+] [AgNO3, reference compound] | 1.3 × 10^8 cfu/mL | No bactericidal effect | did not show any antibacterial performance | 2.2 × 10^7 cfu/mL | No bactericidal effect | – | – | – | – | – | – | – | – | –
[Cl][Cu][Cl] [CuCl2, reference compound] | 4.9 × 10^8 cfu/mL | No bactericidal effect | did not show any antibacterial performance | 3.2 × 10^7 cfu/mL | No bactericidal effect | – | – | – | – | – | – | – | – | –
CCCCCCSCCC(=O)OCC[N+](C)(C)CCC[N+](C)(C)CCOC(=O)CCSCCCCCC [Example C6-S-Cl] | – | – | – | – | – | 4.0 × 10^5 cfu/mL | 98.621% | 3.2 × 10^3 cfu/mL | 99.989% | – | – | – | – | –
CCCCCCCCSCCC(=O)OCC[N+](C)(C)CCC[N+](C)(C)CCOC(=O)CCSCCCCCCCC [Example C8-S-Br] | – | – | – | – | – | – | – | – | – | 1.1 × 10^3 cfu/mL | >99.99% | 75 cfu/mL | >99.999% | –
CCCCCCCCSCCC(=O)OCC[N+](C)(C)CCC[N+](C)(C)CCOC(=O)CCSCCCCCCCC [Example C8-S-Cl] | 1.8 × 10^3 cfu/mL | >99.99% | – | 86 cfu/mL | >99.999% | 1.9 × 10^2 cfu/mL | >99.99% | 90 cfu/mL | >99.999% | 1.7 × 10^3 cfu/mL | >99.99% | 79 cfu/mL | >99.999% | bactericidal rate (Table 1, 0.0015625% and 0.00078125% aqueous solutions, Escherichia coli): above 99.99%; Treated (cfu/mL) [7]: 2.6 × 10^5 cfu/mL; sterilizing rate [7]: 99.985%; Treated (cfu/mL) [8]: 1.8 × 10^3 cfu/mL; sterilizing rate [8]: >99.99%; Treated (cfu/mL) [9]: 82 cfu/mL; sterilizing rate [9]: >99.999%
CCCCCCCCSCCC(=O)OCC[N+](C)(C)CCC[N+](C)(C)CCOC(=O)CCSCCCCCCCC [Example C8-S-NO3] | – | – | – | – | – | – | – | – | – | 1.4 × 10^2 cfu/mL | >99.999% | 13 cfu/mL | >99.999% | bactericidal rate (Table 2, 0.0015625% and 0.00078125% aqueous solutions, Escherichia coli): above 99.999%; Treated (cfu/mL) [10]: 4.5 × 10^4 cfu/mL; sterilizing rate [10]: >99.99%; Treated (cfu/mL) [11]: 2.5 × 10^2 cfu/mL; sterilizing rate [11]: >99.99%; Treated (cfu/mL) [12]: 13 cfu/mL; sterilizing rate [12]: >99.999%
CCCCCCCCCC(=O)OCC[N+](C)(C)CCC[N+](C)(C)CCOC(=O)CCCCCCCCC [Example C10-Cl, reference compound] | – | – | – | – | – | – | – | – | – | – | – | – | – | Treated (cfu/mL) [7]: 4.3 × 10^5 cfu/mL; sterilizing rate [7]: 99.978%; Treated (cfu/mL) [8]: 3.5 × 10^3 cfu/mL; sterilizing rate [8]: >99.99%; Treated (cfu/mL) [9]: 1.2 × 10^2 cfu/mL; sterilizing rate [9]: >99.999%
CCCCCCCCCCSCCC(=O)OCC[N+](C)(C)CCC[N+](C)(C)CCOC(=O)CCSCCCCCCCCCC [Example C10-S-Cl] | – | – | – | – | – | 4.6 × 10^4 cfu/mL | 99.841% | 5.8 × 10^2 cfu/mL | >99.99% | – | – | – | – | –
[Cl][Fe]([Cl])[Cl] [FeCl3, reference compound] | 6.2 × 10^8 cfu/mL | No bactericidal effect | did not show any antibacterial performance | 4.3 × 10^7 cfu/mL | No bactericidal effect | – | – | – | – | – | – | – | – | –
[Cl][Mn][Cl] [MnCl2, reference compound] | 8.9 × 10^7 cfu/mL | No bactericidal effect | did not show any antibacterial performance | 2.3 × 10^7 cfu/mL | No bactericidal effect | – | – | – | – | – | – | – | – | –
